From patent US20140357512A1, “HISTONE DEACETYLASE (HDAC) BIOMARKERS IN MULTIPLE MYELOMA” (priority 2013, published 2014)

System: human myeloma cell line MM.1S
Assay: SILAC acetylated-lysine peptide profiling, HDAC inhibitor vs DMSO (light/heavy ratio)
Assay type: cell-based
Text: An embodiment of the invention comprises utilizing the SILAC method in order to quantitate changes in protein expression between two or more populations of cells. The SILAC method is a technique based on mass spectrometry that detects differences in protein abundance among samples using non-radioactive isotopic labeling. The SILAC method is known in the art, and described in detail in Ong et al., “Stable Isotope Labeling by Amino Acids in Cell Culture, SILAC, as a Simple and Accurate Approach to Expression Proteomics”, Molecular & Cellular Proteomics, vol. 1, pp. 376-386 (2002), which is incorporated herein by reference in its entirety.
Briefly, the SILAC method involves growing two populations of cells in cell culture. The first population of cells is grown in growth media containing normal amino acids (“normal media”). The second population of cells is grown in media lacking a standard essential amino acid (such as lysine), but is then supplemented with a non-radioactive, isotopically labeled form of that essential amino acid (such as lysine labeled with ^13C atoms, rather than normal ^12C atoms), which is called “heavy media”. When the two populations of cells are each growing in the medium, they incorporate the amino acids into all of their proteins. The growth of cells maintained in the heavy media is no different from that in normal media. All peptides containing the heavy amino acids are heavier than their normal counterparts. The cells from each of the two populations of cells are lysed. The lysates from each of the two cell populations are then combined. The combined cell lysates are then analyzed by mass spectrometry. Pairs of chemically identical peptides of different stable isotope composition can be differentiated in a mass spectrometer due to their difference in mass. The ratio of peak intensities in the mass spectrum for such peptide pairs reflects the abundance ratio for the two proteins.
This example describes SILAC studies that were performed to compare the effects of three different HDAC inhibitors (Compound A, Compound B, and tubastatin A) to a control on a human multiple myeloma cell line. The HDAC inhibitors were also compared amongst themselves to determine differences in their effects.
A human myeloma cell line MM.1S was grown using either ^12C (light) or ^13C (heavy) lysine containing culture medium. The “heavy” cells were treated with DMSO as the control, and the “light” cells were treated with a single HDAC inhibitor at 37° C. for 6 hours. The heavy and light cells were lysed, and the lysates were mixed in 1:1 ratio and digested with the protease trypsin. The acetylated lysine containing peptides (due to the action of the HDAC inhibitor) in the digested peptide pool were captured by a non-specific anti-acetylated lysine antibody cocktail (the antibodies identify both light and heavy acetylated peptides), and subjected to mass spectrometry analysis in order to identify thousands of individual peptides.
Thousands of peptides were identified in pairs (^12C and ^13C) due to their known mass differences. The amino acid sequence and quantitative ratio (Light/Heavy) of a given peptide in two differentially treated cell lysates were then determined and annotated with their possible protein (gene) sources.
As stated above, three HDAC inhibitors (Compound A, Compound B, and Tubastatin A) were used. Thus, the SILAC method was performed three times, with a different HDAC inhibitor compared to a control each time. Accordingly, there are three pairs of quantitative data in the table below, i.e., Compound A:DMSO, Compound B:DMSO, and Tubastatin A:DMSO. A cut-off of 1.30 fold of change (increase or decrease) was then used to determine “changed” or “+” in the table, and any peptides with a fold of change less than 1.3 fold were determined to be “unchanged” or “0” in the table. Those peptides that were not identified were marked as “NA” in the table. […]

O=C(CCCCCCNC(=O)c1cnc(N(c2ccccc2)c2ccccc2)nc1)NO [Compound A, 2-(diphenylamino)-N-(7-(hydroxyamino)-7-oxoheptyl)pyrimidine-5-carboxamide]
light to heavy ratio (L/H ratio), log 2 scale, acetylated peptide VGDK(ac)[…] (SEQ ID NO: 773) (10 kDa heat shock protein mitochondrial [70], gene HSPE1, drug:DMSO): 1.00
light to heavy ratio (L/H ratio) of acetylated peptide AGEATVK(ac)FLK (SEQ ID NO: 580) (39S ribosomal protein L9 mitochondrial [165], gene MRPL9, inhibitor:DMSO): 0.43 log 2
light to heavy ratio (L/H ratio) of acetylated peptide IQEVLK(ac)HAR (SEQ ID NO: 264) (39S ribosomal protein L20 mitochondrial [26], MRPL20, drug:DMSO): 0.43 log 2
light to heavy ratio (L/H ratio) of acetylated peptide YIGK(ac)TMDYR (SEQ ID NO: 535) (39S ribosomal protein L24 mitochondrial [100], gene MRPL24, inhibitor:DMSO): −0.39 log 2
light to heavy ratio (L/H ratio) of acetylated peptide FQK(ac)ELER (SEQ ID NO: 618) (39S ribosomal protein L44 mitochondrial [43], gene MRPL44, inhibitor:DMSO): 0.48 log 2
light to heavy ratio (L/H ratio) of acetylated peptide FK(ac)LITEDVQGK (SEQ ID NO: 287) (40S ribosomal protein S3a [85], SNORD73A, RPS3A, drug:DMSO): 0.62 log 2
light to heavy ratio (L/H ratio) of acetylated peptide KDVHMPK(ac)HPELADK (SEQ ID NO: 353) (40S ribosomal protein S10 [31], RPS10, drug:DMSO): 0.00 log 2
light to heavy ratio (L/H ratio), log 2 scale, acetylated peptide K(ac)FGGPGAR (SEQ ID NO: 768) (40S ribosomal protein S16 [131], gene RPS16, drug:DMSO): 0.97
light to heavy ratio (L/H ratio) of acetylated peptide NK(ac)[…] (SEQ ID NO: 559) (40S ribosomal protein S17 [49], gene RPS17, RPS17L, inhibitor:DMSO): 0.40 log 2
light to heavy ratio (L/H ratio) of acetylated peptide ADGIVSK(ac)NF (SEQ ID NO: 599) (40S ribosomal protein S21 [81], gene RPS21, inhibitor:DMSO): 0.46 log 2
light to heavy ratio (L/H ratio) of acetylated peptide GIVLEK(ac)VGVEAK (SEQ ID NO: 320) (40S ribosomal protein S23 [54], RPS23, drug:DMSO): 1.00 log 2
light to heavy ratio (L/H ratio), log 2 scale, acetylated peptide K(ac)FGQGSR (SEQ ID NO: 809) (40S ribosomal protein S29 [13], gene RPS29, drug:DMSO): 1.00
light to heavy ratio (L/H ratio), log 2 scale, acetylated peptide ATWK(ac)SNYFLK (SEQ ID NO: 760) (60S acidic ribosomal protein P0 [10], gene RPLP0, drug:DMSO): 0.91
light to heavy ratio (L/H ratio), log 2 scale, acetylated peptide ALEK(ac)IDLK (SEQ ID NO: 813) (60S ribosomal protein L3 [362], gene SNORD43, RPL3, drug:DMSO): 1.00
light to heavy ratio (L/H ratio) of acetylated peptide IPK(ac)HLTDAYFK (SEQ ID NO: 259) (60S ribosomal protein L6 [211], RPL6, drug:DMSO): 0.40 log 2
light to heavy ratio (L/H ratio), log 2 scale, acetylated peptide AVDSQILPK(ac)IK (SEQ ID NO: 761) (60S ribosomal protein L6 [261], gene RPL6, drug:DMSO): 0.92
light to heavy ratio (L/H ratio) of acetylated peptide HGYIK(ac)GIVK (SEQ ID NO: 556) (60S ribosomal protein L8 [42], gene RPL8, inhibitor:DMSO): 0.40 log 2
light to heavy ratio (L/H ratio) of acetylated peptide IDK(ac)PILK (SEQ ID NO: 506) (60S ribosomal protein L8 [177], gene RPL8, inhibitor:DMSO): −0.65 log 2
light to heavy ratio (L/H ratio) of acetylated peptide GPLDK(ac)WR (SEQ ID NO: 622) (60S ribosomal protein L10-like [208], gene RPL10L, inhibitor:DMSO): 0.48 log 2
light to heavy ratio (L/H ratio), log 2 scale, acetylated peptide YMVK(ac)SCGK (SEQ ID NO: 811) (60S ribosomal protein L10 [78], gene SNORA70, RPL10, drug:DMSO): 1.00
light to heavy ratio (L/H ratio), log 2 scale, acetylated peptide VDEVK(ac)STIK (SEQ ID NO: 805) (60S ribosomal protein L10a [152], gene RPL10A, drug:DMSO): 1.00
light to heavy ratio (L/H ratio) of acetylated peptide VITEEEK(ac)NFK (SEQ ID NO: 522) (60S ribosomal protein L13 [174], gene RPL13, inhibitor:DMSO): −0.46 log 2
light to heavy ratio (L/H ratio) of acetylated peptide LAAIVAK(ac)QVLLGR (SEQ ID NO: 505) (60S ribosomal protein L13a [25], gene SNORD32A, RPL13A, SNORD33, SNORD34, inhibitor:DMSO): −0.67 log 2
light to heavy ratio (L/H ratio) of acetylated peptide K(ac)FAYLGR (SEQ ID NO: 614) (60S ribosomal protein L13a [134], gene SNORD32A, RPL13A, SNORD33, SNORD34, inhibitor:DMSO): 0.47 log 2
light to heavy ratio (L/H ratio), log 2 scale, acetylated peptide LAHEVGWK(ac)[…] (SEQ ID NO: 812) (60S ribosomal protein L13a [148], gene SNORD32A, RPL13A, SNORD33, SNORD34, drug:DMSO): 1.00
light to heavy ratio (L/H ratio) of acetylated peptide […](ac)PVHK (SEQ ID NO: 581) (60S ribosomal protein L15 [153], gene RPL15, inhibitor:DMSO): 0.43 log 2
light to heavy ratio (L/H ratio) of acetylated peptide GHK(ac)FHHTIGGSR (SEQ ID NO: 519) (60S ribosomal protein L15 [179], gene RPL15, inhibitor:DMSO): −0.51 log 2
light to heavy ratio (L/H ratio), log 2 scale, acetylated peptide SFVK(ac)[…] (SEQ ID NO: 770) (60S ribosomal protein L27 [73], gene RPL27, drug:DMSO): 0.99
light to heavy ratio (L/H ratio), log 2 scale, acetylated peptide YSVDIPLDK(ac)TVVNK (SEQ ID NO: 807) (60S ribosomal protein L27 [93], gene RPL27, drug:DMSO): 1.00
light to heavy ratio (L/H ratio), log 2 scale, acetylated peptide TVVNK(ac)DVFR (SEQ ID NO: 766) (60S ribosomal protein L27 [98], gene RPL27, drug:DMSO): 0.94
light to heavy ratio (L/H ratio) of acetylated peptide NCSSFLIK(ac)R (SEQ ID NO: 558) (60S ribosomal protein L28 [19], gene RPL28, inhibitor:DMSO): 0.40 log 2
light to heavy ratio (L/H ratio) of acetylated peptide IHGVGFK(ac)K (SEQ ID NO: 542) (60S ribosomal protein L31 [39], gene RPL31, inhibitor:DMSO): 0.39 log 2
light to heavy ratio (L/H ratio), log 2 scale, acetylated peptide LNK(ac)AVWAK (SEQ ID NO: 808) (60S ribosomal protein L31 [70], gene RPL31, drug:DMSO): 1.00
light to heavy ratio (L/H ratio) of acetylated peptide […](ac)ENLR (SEQ ID NO: 610) (60S ribosomal protein L35 [66], gene RPL35, inhibitor:DMSO): 0.47 log 2
light to heavy ratio (L/H ratio) of acetylated peptide LWSK(ac)AIFAGYK (SEQ ID NO: 538) (60S ribosomal protein L35a [8], gene RPL35A, inhibitor:DMSO): 0.38 log 2
